The supplement of paper PMC10307832

Columns and labels:
Test in all cases: relative viability (nuclei count vs DMSO), 5 days (fraction); higher = more cells survive
[1] = compound: CC[C@@H](C)CNCC(=O)N1CCC2=C([C@@H]1COC3=CC=CC(=C3)C)C=CS2 [RU-SKI 43] + NC(=O)Nc1cc(-c2cccc(F)c2)sc1C(=O)N[C@H]1CCCNC1 [AZD7762] (partner 0.2 µM)
How it was run: (§1)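 Lung cancer cell lines in 1536-well plates got either a single drug or a fixed anchor-drug dose together with five library-drug doses (not always all listed) in √10 steps, by pin tool, on the day after seeding. Nuclei were counted after 5 days, and relative viability is the treated-to-vehicle ratio of nuclei counts. Values are medians of duplicate plates.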

[2] = compound: CCc1c2c(nc3ccc(OC(=O)N4CCC(N5CCCCC5)CC4)cc13)-c1cc3c(c(=O)n1C2)COC(=O)[C@]3(O)CC [Irinotecan] + NC(=O)Nc1cc(-c2cccc(F)c2)sc1C(=O)N[C@H]1CCCNC1 [AZD7762] (partner 0.2 µM)
How it was run: as §1

[3] = compound: CC[C@@H](C)CNCC(=O)N1CCC2=C([C@@H]1COC3=CC=CC(=C3)C)C=CS2 [RU-SKI 43] + Cc1nc(Nc2ncc(C(=O)Nc3c(C)cccc3Cl)s2)cc(N2CCN(CCO)CC2)n1 [Dasatinib] (partner 0.075 µM)
How it was run: as §1

[4] = compound: Cn1cc(-c2cnc3ccc4ccc(CS(=O)(=O)NCc5ccccn5)cc4c(=O)c3c2)cn1 [MK-8033] + O=C(c1cc(Cc2n[nH]c(=O)c3ccccc23)ccc1F)N1CCN(C(=O)C2CC2)CC1 [Olaparib] (partner 8 µM)
How it was run: as §1

Cell Line	relative viability ([1]; first compound 0.1 µM)	relative viability ([1]; first compound 0.3162 µM)	relative viability ([1]; first compound 1 µM)	relative viability ([1]; first compound 3.162 µM)	relative viability ([1]; first compound 10 µM)	relative viability ([2]; first compound 0.6325 µM)	relative viability ([2]; first compound 2 µM)	relative viability ([2]; first compound 6.325 µM)	relative viability ([2]; first compound 20 µM)	relative viability ([3]; first compound 0.1 µM)	relative viability ([3]; first compound 0.3162 µM)	relative viability ([3]; first compound 1 µM)	relative viability ([3]; first compound 3.162 µM)	relative viability ([3]; first compound 10 µM)	relative viability ([4]; first compound 0.02 µM)	relative viability ([4]; first compound 0.06325 µM)	relative viability ([4]; first compound 0.2 µM)	relative viability ([4]; first compound 0.6325 µM)	relative viability ([4]; first compound 2 µM)
NCI-H1915	0.699	0.833	0.702	0.672	0.688	0.387	0.346	0.165	0.127	0.337	0.331	0.357	0.306	0.318	0.243	0.241	0.267	0.252	0.259
HCC-366	0.268	0.252	0.321	0.34	0.216	0.182	0.138	0.0668	0.0622	0.61	0.955	0.715	0.698	0.476	0.361	0.344	0.328	0.34	0.323
EPLC-272H	0.242	0.194	0.195	0.345	0.26		0.234	0.133	0.137	0.267	0.351	0.317	0.317	0.321	0.817	0.716	0.792	0.614	0.689
NCI-H1792	0.623	0.753	0.656	0.712	0.686	0.241	0.502	0.169	0.274	0.772	1.03	0.739	0.892	0.845	0.451	0.448	0.337	0.351	0.3
